Literature values as cited in patent US6087327A (priority 1998, dated 2000).

System: neurotransmitter release process

## Nc1ccncc1 [aminopyridine]
  reversal of inhibition produced by botulinum neurotoxin A: more effective
